# Experimental data reported in patent US8685952B2, “Method for the treatment of diabetes” (KOWA Co., Ltd., priority 2006, dated 2014).
# Where a name gives a salt, the structure may show the parent alone.
# Assays:
# KKAy mice [1] = experiment: oral glucose tolerance test in KKAy mice after 21 days of oral administration; format: in vivo; details: male KKAy mice; oral once a day for 21 days; pitavastatin 10 mg/kg, pravastatin 50 mg/kg, enalapril maleate 1 mg/kg; glucose 2 g/kg oral after 18 h fasting; compared with control group (combination also vs single administration groups, P<0.05)
# Experimental: Male KKAy mice (age: 10 weeks, Nippon Cler Co., Ltd.) were provided. Throughout the duration of the experiment, the mice were housed in a cage with a controlled light/dark cycle (duration of light period with a room light: 7:00 a.m. to 7:00 p.m.) at a temperature of 23±3° C. and a humidity of 55±15% and were allowed to freely take a solid chow (CE-2; Nippon Cler Co., Ltd.) and tap water. Pitavastatin and/or enalapril maleate were suspended in a 0.5-mass % aqueous solution of carboxymethyl cellulose (Iwai Kagaku Co., Ltd.) so that the pitavastatin content and the enalapril maleate content were adjusted to 1 mg/mL and 0.1 mg/mL, respectively. Since pitavastatin has a water content of 9.43%, pitavastatin was weighed in an amount of 1.1 times by mass the target dose for compensation. The suspension was refrigerated (4° C.) in a light-tight bottle. The suspensions were prepared every 7 days. Twenty four KKAy mice were randomly divided into the following four groups (six mice per group): a control group, a pitavastatin alone (10 mg/kg) group, an enalapril maleate alone (1 mg/kg) group, and a pitavastatin (10 mg/kg) and enalapril maleate (1 mg/kg) combined use group. Each of pitavastatin and enalapril maleate was orally administered once a day at a dose of 10 mL/kg for 21 days, and a 0.5 mass % aqueous sodium carboxymethyl cellulose solution (10 mL/kg) was orally administered to the control group. […] Immediately after collection, blood glucose level was determined by means of a […] reader (GR-101, product of Terumo Co., Ltd.). After determination of the initial blood glucose level, an aqueous glucose solution was orally administered to each mouse (2 g/10 mL/kg), and blood glucose level was determined in a similar manner at 15, 30, 60, and 120 minutes after administration of glucose. In each group, AUC of blood glucose level was calculated. The differences between the control group and the drug-administered groups were analyzed on the basis of Dunnett's multiple comparison test, preceded by Bartlett's analysis of variance. […]
# KKAy mice [2] = details: type II diabetes model, reported in the literature; cited from earlier work
SMILES,AUC of blood glucose level (to glucose tolerance hour 2) (KKAy mice [1]),effect on impaired glucose tolerance / insulin resistance (KKAy mice [2])
CCOC(=O)[C@H](CCc1ccccc1)N[C@@H](C)C(=O)N1CCC[C@H]1C(=O)O [enalapril maleate],tended to be reduced,–
"O=C([O-])C[C@H](O)C[C@H](O)/C=C/c1c(C2CC2)nc2ccccc2c1-c1ccc(F)cc1.O=C([O-])C[C@H](O)C[C@H](O)/C=C/c1c(C2CC2)nc2ccccc2c1-c1ccc(F)cc1.[Ca+2] [pitavastatin, pitavastatin calcium]",tended to be reduced,effect of improving impaired glucose tolerance
"CC[C@H](C)C(=O)O[C@H]1C[C@H](O)C=C2C=C[C@H](C)[C@H](CC[C@@H](O)C[C@@H](O)CC(=O)O)[C@H]21 [pravastatin, pravastatin sodium]",tended to be reduced,effect of reversing impaired glucose tolerance
CCOC(=O)[C@H](CCc1ccccc1)N[C@H]1CS[C@H](c2cccs2)CN(CC(=O)O)C1=O [temocapril],–,reduction of insulin resistance
